Source: patent EP4620956A1, “PARP1 INHIBITORS” (Zhejiang Yangli Pharmaceutical Technology Co., Ltd., priority 2022, dated 2024)

How the values were obtained:
[1] = target: T1, PARP3 (Homo sapiens, UniProt Q9Y6F1); test: Inhibition of PARP3 enzyme activity (chemiluminescence); format: biochemical; conditions: ratio relative to the PARP1 enzyme activity
T1 construct: purchased BPS 80503
T1 sequence (Q9Y6F1 1-533): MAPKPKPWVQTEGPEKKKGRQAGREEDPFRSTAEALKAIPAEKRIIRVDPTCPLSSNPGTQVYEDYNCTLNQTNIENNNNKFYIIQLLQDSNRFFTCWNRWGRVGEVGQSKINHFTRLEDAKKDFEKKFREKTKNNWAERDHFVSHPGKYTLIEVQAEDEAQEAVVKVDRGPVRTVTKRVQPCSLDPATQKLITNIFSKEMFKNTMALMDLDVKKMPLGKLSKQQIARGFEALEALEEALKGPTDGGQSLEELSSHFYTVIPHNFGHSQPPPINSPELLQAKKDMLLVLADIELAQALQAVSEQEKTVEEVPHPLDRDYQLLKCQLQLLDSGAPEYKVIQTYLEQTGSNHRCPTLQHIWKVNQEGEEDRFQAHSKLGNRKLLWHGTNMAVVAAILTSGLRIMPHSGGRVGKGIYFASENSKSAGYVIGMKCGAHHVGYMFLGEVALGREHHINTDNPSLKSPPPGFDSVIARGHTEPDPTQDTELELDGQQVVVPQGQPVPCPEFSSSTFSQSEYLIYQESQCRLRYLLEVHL

[2] = target: T2, PARP2 (Homo sapiens, UniProt Q9UGN5); test: PARP2-DNA trapping, fluorescence polarization (FP); format: biochemical
T2 construct: purchased BPS 80502
T2 sequence (Q9UGN5 whole entry): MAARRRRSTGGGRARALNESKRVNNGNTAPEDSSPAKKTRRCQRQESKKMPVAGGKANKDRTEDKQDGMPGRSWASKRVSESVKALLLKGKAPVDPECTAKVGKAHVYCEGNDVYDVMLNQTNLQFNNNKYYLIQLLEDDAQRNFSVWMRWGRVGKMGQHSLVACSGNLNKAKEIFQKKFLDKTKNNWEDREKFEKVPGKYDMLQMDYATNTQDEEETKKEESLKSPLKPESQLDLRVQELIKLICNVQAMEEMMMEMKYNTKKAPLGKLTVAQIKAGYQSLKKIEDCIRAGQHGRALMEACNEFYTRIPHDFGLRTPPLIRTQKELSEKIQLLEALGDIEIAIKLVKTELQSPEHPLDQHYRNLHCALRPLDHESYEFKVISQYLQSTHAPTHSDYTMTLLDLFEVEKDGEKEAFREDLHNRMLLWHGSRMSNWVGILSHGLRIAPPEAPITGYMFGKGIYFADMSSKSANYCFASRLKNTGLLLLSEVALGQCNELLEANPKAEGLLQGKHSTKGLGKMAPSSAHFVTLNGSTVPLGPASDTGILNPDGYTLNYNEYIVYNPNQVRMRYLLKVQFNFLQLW

[3] = test system: MDA-MB-231; test: Anti-proliferative activity (CellTiter-Glo, 7 days), MDA-MB-231; format: cell-based, human; conditions: Homo sapiens, MDA-MB-231, 168 h, read-out: MDA-MB-231 IC50
[4] = test system: MDA-MB-436; test: Anti-proliferative activity (CellTiter-Glo, 7 days), MDA-MB-436; format: cell-based, human; conditions: Homo sapiens, MDA-MB-436, 168 h, read-out: MDA-MB-436 IC50

PARP3 multiple vs PARP1 [1]: 47 | Bottom ([2]; PARP2, 0.25 hour): -5.4 | Hillslope ([2]; PARP2, 0.25 hour): 1.2 | Top ([2]; PARP2, 0.25 hour): 107.8 | Bottom ([2]; PARP2, 0.5 hour): -2.7 | Hillslope ([2]; PARP2, 0.5 hour): 1.4 | Top ([2]; PARP2, 0.5 hour): 109.9 | Bottom ([2]; PARP2, 1 hour): 2.8 | Hillslope ([2]; PARP2, 1 hour): 2.0 | Top ([2]; PARP2, 1 hour): 109.4 | Bottom ([2]; PARP2, 2 hour): -2.0 | Hillslope ([2]; PARP2, 2 hour): 2.2 | Top ([2]; PARP2, 2 hour): 107.9 | Bottom ([2]; PARP2, 4 hour): -1.4 | Hillslope ([2]; PARP2, 4 hour): 1.9 | Top ([2]; PARP2, 4 hour): 107.2 | Bottom ([2]; PARP2, 8 hour): 1.8 | Hillslope ([2]; PARP2, 8 hour): 2.1 | Top ([2]; PARP2, 8 hour): 106.5 | Bottom ([2]; PARP2, 24 hour): 0.3 | Hillslope ([2]; PARP2, 24 hour): 2.0 | Top ([2]; PARP2, 24 hour): 109.8 | Bottom ([2]; PARP2, 48 hour): -1.6 | Hillslope ([2]; PARP2, 48 hour): 1.8 | Top ([2]; PARP2, 48 hour): 110.6 | IC50 [3]: 9.52 µM | IC50 [4]: 0.298 µM
Structure (SMILES): O=C(c1cc(Cc2n[nH]c(=O)c3ccccc23)ccc1F)N1CCN(C(=O)C2CC2)CC1 [Olaparib, olaparib]
